# According to PubChem BioAssay AID2060599 (Molecular Pharmacology Branch, DTP, NCI, 2025):
# Tested on: 817829-284-R-J1-PDC complex spheroids, viability
# Assay: Anticancer human tumor 817829-284-R-J1-PDC patient-derived colon adenocarcinoma cell line growth inhibition [CLK]
# Conditions: for IC50: curve of first compound; for viability, T/C: stronger effect = lower value
# In short: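 Multi-cell-type spheroids combined patient-derived tumor cells with HUVEC endothelial cells and human mesenchymal stem cells. Paired agents were dosed in half-log steps down from about clinical Cmax, or from 10 microM where Cmax was unknown.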
# 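Further: spheroids exposed to the agents for seven days before readout.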
smiles,measurement,setting,value
CC(=O)O[C@H]1C(=O)[C@@]2(C)[C@H]([C@H](OC(=O)c3ccccc3)[C@]3(O)C[C@H](OC(=O)[C@H](O)[C@@H](NC(=O)c4ccccc4)c4ccccc4)C(C)=C1C3(C)C)[C@]1(OC(C)=O)CO[C@@H]1C[C@@H]2O + CNC(=O)c1ccc(Nc2nc(OC3CCCC3)c3c(-c4ccc5nc(C)oc5c4)c[nH]c3n2)c(OC)c1,IC50,second compound 0.0316 µM,< 31.6 nM
same,IC50,second compound 0.1 µM,< 31.6 nM
same,IC50,second compound 0.316 µM,< 31.6 nM
same,IC50,second compound 1 µM,< 31.6 nM
same,IC50,second compound 3.16 µM,< 31.6 nM
same,IC50,second compound 10 µM,< 31.6 nM
same,"viability, T/C","second compound 0.0316 µM, first compound 0.0316 µM",10.8%
same,"viability, T/C","second compound 0.0316 µM, first compound 0.1 µM",11.5%
same,"viability, T/C","second compound 0.0316 µM, first compound 0.316 µM",10.8%
same,"viability, T/C","second compound 0.0316 µM, first compound 1 µM",10.6%
same,"viability, T/C","second compound 0.0316 µM, first compound 3.16 µM",11.6%
same,"viability, T/C","second compound 0.0316 µM, first compound 10 µM",16.2%
same,"viability, T/C","second compound 0.1 µM, first compound 0.0316 µM",24.2%
same,"viability, T/C","second compound 0.1 µM, first compound 0.1 µM",25.3%
same,"viability, T/C","second compound 0.1 µM, first compound 0.316 µM",20.2%
same,"viability, T/C","second compound 0.1 µM, first compound 1 µM",23.8%
same,"viability, T/C","second compound 0.1 µM, first compound 3.16 µM",28.9%
same,"viability, T/C","second compound 0.1 µM, first compound 10 µM",26.8%
same,"viability, T/C","second compound 0.316 µM, first compound 0.0316 µM",29.5%
same,"viability, T/C","second compound 0.316 µM, first compound 0.1 µM",31.6%
same,"viability, T/C","second compound 0.316 µM, first compound 0.316 µM",43.8%
same,"viability, T/C","second compound 0.316 µM, first compound 1 µM",38.9%
same,"viability, T/C","second compound 0.316 µM, first compound 3.16 µM",45.1%
same,"viability, T/C","second compound 0.316 µM, first compound 10 µM",32.6%
same,"viability, T/C","second compound 1 µM, first compound 0.0316 µM",31.7%
same,"viability, T/C","second compound 1 µM, first compound 0.1 µM",23.7%
same,"viability, T/C","second compound 1 µM, first compound 0.316 µM",24%
same,"viability, T/C","second compound 1 µM, first compound 1 µM",30.4%
same,"viability, T/C","second compound 1 µM, first compound 3.16 µM",22.6%
same,"viability, T/C","second compound 1 µM, first compound 10 µM",22.8%
same,"viability, T/C","second compound 3.16 µM, first compound 0.0316 µM",26.2%
same,"viability, T/C","second compound 3.16 µM, first compound 0.1 µM",23.9%
same,"viability, T/C","second compound 3.16 µM, first compound 0.316 µM",17.7%
same,"viability, T/C","second compound 3.16 µM, first compound 1 µM",20.1%
same,"viability, T/C","second compound 3.16 µM, first compound 3.16 µM",23.3%
same,"viability, T/C","second compound 3.16 µM, first compound 10 µM",23.3%
same,"viability, T/C","second compound 10 µM, first compound 0.0316 µM",18.6%
same,"viability, T/C","second compound 10 µM, first compound 0.1 µM",23.3%
same,"viability, T/C","second compound 10 µM, first compound 0.316 µM",29.5%
same,"viability, T/C","second compound 10 µM, first compound 1 µM",24.3%
same,"viability, T/C","second compound 10 µM, first compound 3.16 µM",20.5%
same,"viability, T/C","second compound 10 µM, first compound 10 µM",19.9%
